Test results from US6689397B2, “Identification of snake repellents” (priority 1999, dated 2004).

Assays:
[1] = tested on: Brown tree snakes (Boiga irregularis); assay: Aerosol tests: 2 s aerosol spray onto snake's head, behavior observed for 5 min; type: in vivo; conditions: single reagents; for activity category from cluster analysis of behaviors (clusters I-V): Ward's method on VM, SM, LAT, TOT, % VM, % SM; for latency to response (movement latency) / movement when sprayed: 2 s aerosol; for latency to response (movement latency): post-hoc comparison with amyl acetate; for movement when sprayed: 5 min observation
Description: Brown tree snakes (Boiga irregularis), N=400, were captured on the island of Guam along forest-jungle edge using modified minnow traps with live mice lures or by hand after being spot-lighted on fences. Snakes were individually housed in plastic containers until tested. The holding containers were housed in a military warehouse on Andersen Air Force Base, Guam under a 12:12 light:dark cycle. In general snakes were tested only once. […] Capture of snakes occurred during three separate visits to the island: 1997, 1998, 1999.
Essential oils and individual chemicals were diluted into an inert carrier liquid (water) for the purpose of testing. An emulsifying agent (3× yucca extract) was added to the composition to stabilize the water insoluble essential oils and individual chemicals in aqueous solution. The test formulations consisted of 1% test agent (i.e., a specific essential oil or chemical), 1% 3× yucca extract and 98% water. The formulated contents were held in a reservoir in which a siphon was suspended. Pressurized air, contained in an aerosol can was passed over the orifice of the siphon to create a negative pressure which would drawn the test formulation up through the siphon and eject the formulated contents and pressurized air through a small bore nozzle to create an atomized liquid, i.e. aerosol spray.
For testing, the holding tub was moved to the observation room and the solid lid was replaced with a lid with a screen insert. […] Snakes that became active as a result of the handling were not used in the assay. After a 15 min interval where the snake remained in a coiled position, aerosol was sprayed directly onto the snake's head for 2 s at a distance of 30 mm. Immediately after aerosol application, the observer moved to an observation distance of 3 m. We limited observations to the 5 min following aerosol applications. […] Also, in pilot tests, and with only few exceptions, the escape activity of the snake given an acute (2 s) exposure to the chemical subsided after 5 min.
Behaviors were categorized by a trained observer as follows: VM was a violent, vigorous movement by snakes exposed to the aerosol. This movement was characterized by undirected flailing and vigorous probing of the creases of the test chamber. SM, was characterized as a directed, slow search behavior, often accompanied by tongue flicks. This behavior could also be classified as investigatory behavior. In both cases the duration (s) of these behaviors was noted. The time from the application of the stimulus to the onset of either VM or SM was defined as the latency, LAT-VM and LAT-SM, respectively. For the purposes of analysis we used the latency to the first locomotory behavior, LAT, as the quantifiable metric. TOT was defined as the total amount of time (s) that a snake was engaged in locomatory behavior. The time spent in each locomatory behavior relative to the total active time was defined as % VM and % SM, respectively.
We used a fixed effects analysis of variance for the a priori comparison across chemicals. In the first set of analyses, essential oil was the between measures effects while behavior was the dependent variable. We used a post hoc Tukey's Honest Significance Difference test to isolate differences among test stimuli for each of the behavioral measures. Similar analyses were performed for the single reagents. We also categorized reagents into groups that yielded similar combinations of behaviors using cluster analysis (STATISTICA 1999). Amalgamation of clusters was achieved using Ward's method. This approach is distinct from most clustering algorithms in that it uses an analysis of variance approach to evaluate the distances between clusters. The distance measure used was a Chebychev distance. This approach tends to maximize the number of clusters because it is sensitive to differences among objects along single dimensions. The behavioral dimensions considered were: VM, SM, LAT, TOT, % VM, and % SM.

brown treesnakes = conditions: in vivo; cited from earlier work

SMILES | activity category from cluster analysis of behaviors (clusters I-V) [1] | irritant to brown treesnakes (brown treesnakes) | latency to response (movement latency) [1] | movement when sprayed [1]
CC(C)C12CCC(C)(CC1)O2 [1,4-cineole] | most active | – | – | –
c1ccc2ccccc2c1 [Naphthalene] | – | not an irritant | – | –
CC1=CCC2CC1C2(C)C (stereo not shown) [a-pinene] | moderately active | – | – | –
CC1=CC=C(C(C)C)CC1 [a-terpinene] | only weakly active | – | longer than amyl acetate | –
CCCCCOC(C)=O [amyl acetate] | highly irritating, but poor at promoting long-term locomatory behavior | – | shortest | –
CC12CCC(CC1=O)C2(C)C (stereo not shown) [camphor] | did not react | – | longer than amyl acetate | did not move at all
O=CC=Cc1ccccc1 [cinnamaldehyde] | most active | – | – | –
O=C(O)C=Cc1ccccc1 [cinnamic acid] | did not react | – | longer than amyl acetate | did not move at all
CC(C)=CCCC(C)=CC=O [citral] | most active | – | – | –
CCCC(=O)OCC [ethyl butyrate] | only weakly active | – | longer than amyl acetate | –
CCOC(=O)Cc1ccccc1 [ethyl phenyl acetate] | moderately active | – | – | –
C=CCc1ccc(O)c(OC)c1 [eugenol] | moderately active | – | – | –
CC(C)=CCC/C(C)=C/CO [geraniol] | did not react | – | longer than amyl acetate | did not move at all
CC(=O)OC/C=C(\C)CCC=C(C)C [geranyal acetate] | most active | – | – | –
C=C(C)[C@H]1CC=C(C)CC1 [limonene] | only weakly active | – | longer than amyl acetate | –
C=CC(C)(O)CCC=C(C)C (stereo not shown) [linalool] | only weakly active | – | longer than amyl acetate | –
COc1cccc(C=O)c1 [m-anisaldehyde] | most active | – | – | –
CC(C)[C@@H]1CC[C@@H](C)CC1=O [menthone] | highly irritating, but poor at promoting long-term locomatory behavior | – | – | –
COC(=O)c1ccccc1N [methyl anthranilate] | highly irritating, but poor at promoting long-term locomatory behavior | – | – | –
COC(=O)c1ccccc1O [methyl salicylate] | most active | – | – | –
CC(C)=CCC/C(C)=C\CO [nerol] | moderately active | – | longer than amyl acetate | –
C/C=C/c1ccc(OC)cc1 [trans-anethole] | most active | – | – | –
